{"source": "patent US10670605B2", "about": "“Cysteine reactive probes and uses thereof” (The Scripps Research Institute, priority 2015, dated 2020)", "key": {"primary human T cells [1]": {"system": "primary human T cells", "assay": "T cell activation markers CD25 and CD69 (flow cytometry)", "format": "cell-based", "experimental": "(§1) 96-well plates were coated with anti-CD3 (1:200; BioXcell) and anti-CD28 (1:500; 302933; BioLegend) in PBS (100 μL/well) overnight at 4° C. The plates were then washed twice with PBS and to each well was added 500,000 primary T cells in 100 μL of RPMI supplemented with 10% FBS, glutamine, and Pen-Strep. Cells were then treated with 100 μL of media containing compound at the indicated concentrations (final well volume of 200 μL). Cells were left at 37° C. in a 5% CO2 incubator for the indicated periods of time and harvested by centrifugation (500 g, 8 min, 4° C.), followed by washing with PBS.\nFlow cytometry analysis of cell surface antigens was performed with the following antibodies: Pacific Blue-conjugated anti-CD8 (1:25 dilution; clone RPA-T8; BD Biosciences), APC-conjugated anti-CD4 (1:25 dilution; clone RPA-T4; eBioscience), phycoerythrin-conjugated anti-CD25 (1:25 dilution; clone BC96; eBioscience or PC61; BioLegend (PKCθ studies)), FITC-conjugated anti-CD69 (1:25 dilution; clone FN50; eBioscience). All antibodies were diluted in 1% FBS in PBS, and 50 μL of the stain solution was added to each well. […] Flow cytometry acquisition was performed with BD FACSDivam-driven BD™ LSR II flow cytometer (Becton, Dickinson and Company). Data was then analyzed with FlowJo software (Treestar Inc.). Data represent mean±SE for four-five experiments per group."}, "primary human T cells [2]": {"system": "primary human T cells", "assay": "IL-2 release (ELISA), anti-CD3 + anti-CD28 stimulated T cells", "format": "cell-based", "settings": "anti-CD3, anti-CD28 stimulation, 8 h", "experimental": "as §1, with “PBS. T cells were harvested and stimulated as described above. At the indicated time points, cell culture supernatants were collected and IL-2 levels were measured in clear microplates (991427; R&D Systems) according to the manufacturer's instructions (Human IL-2 DuoSet ELISA; DY202; R&D Systems). Plates were read in a Gemini SpectraMax 250 microplate reader set to 450 nm. Data represent mean±SE for four experiments per group.” for “PBS.”"}, "primary human T cells [3]": {"system": "primary human T cells", "protocol": "Cells were transferred to a round bottom 96-well plate (0720095; Fisher Scientific), harvested by centrifugation (500 g, 3 min, 4° C.), washed with PBS, and stained with LIVE/DEAD fixable cell stain (L23105; ThermoFisher) according to the manufacturer's instructions. Briefly, one vial of LIVE/DEAD stain was resuspended in 50 uL of DMSO and added to 20 mL of PBS. To each well of the 96-well plate was added 200 μL of the stain, and the cells were incubated on ice for 30 min in the dark. After this time, cells were pelleted and washed once with PBS, then stained for cell surface antigens."}, "SMAD2 C81 (Q15796)": {"target": "SMAD2 C81 (Q15796) (Homo sapiens, UniProt Q15796)", "sequence (Q15796 whole entry, the tested form may be a part)": "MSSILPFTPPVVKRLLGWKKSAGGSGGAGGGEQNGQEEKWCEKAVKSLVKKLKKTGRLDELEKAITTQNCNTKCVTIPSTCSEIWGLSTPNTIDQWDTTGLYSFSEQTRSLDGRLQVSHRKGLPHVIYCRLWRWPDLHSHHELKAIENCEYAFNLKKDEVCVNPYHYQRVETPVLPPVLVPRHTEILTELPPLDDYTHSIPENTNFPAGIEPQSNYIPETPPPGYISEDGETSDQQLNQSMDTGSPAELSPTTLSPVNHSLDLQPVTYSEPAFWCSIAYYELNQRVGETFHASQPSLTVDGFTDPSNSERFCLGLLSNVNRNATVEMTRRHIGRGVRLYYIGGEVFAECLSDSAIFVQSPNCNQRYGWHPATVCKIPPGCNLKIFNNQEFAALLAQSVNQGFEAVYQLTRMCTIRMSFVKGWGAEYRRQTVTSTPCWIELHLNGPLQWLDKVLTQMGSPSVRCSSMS", "assay": "Competitive isoTOP-ABPP in situ", "format": "cell-based", "settings": "fragment 2 at 200 μM, MDA-MB-231 cells"}, "RNF214 C655 (Q8ND24)": {"target": "RNF214 C655 (Q8ND24) (Homo sapiens, UniProt Q8ND24)", "sequence (Q8ND24 whole entry, the tested form may be a part)": "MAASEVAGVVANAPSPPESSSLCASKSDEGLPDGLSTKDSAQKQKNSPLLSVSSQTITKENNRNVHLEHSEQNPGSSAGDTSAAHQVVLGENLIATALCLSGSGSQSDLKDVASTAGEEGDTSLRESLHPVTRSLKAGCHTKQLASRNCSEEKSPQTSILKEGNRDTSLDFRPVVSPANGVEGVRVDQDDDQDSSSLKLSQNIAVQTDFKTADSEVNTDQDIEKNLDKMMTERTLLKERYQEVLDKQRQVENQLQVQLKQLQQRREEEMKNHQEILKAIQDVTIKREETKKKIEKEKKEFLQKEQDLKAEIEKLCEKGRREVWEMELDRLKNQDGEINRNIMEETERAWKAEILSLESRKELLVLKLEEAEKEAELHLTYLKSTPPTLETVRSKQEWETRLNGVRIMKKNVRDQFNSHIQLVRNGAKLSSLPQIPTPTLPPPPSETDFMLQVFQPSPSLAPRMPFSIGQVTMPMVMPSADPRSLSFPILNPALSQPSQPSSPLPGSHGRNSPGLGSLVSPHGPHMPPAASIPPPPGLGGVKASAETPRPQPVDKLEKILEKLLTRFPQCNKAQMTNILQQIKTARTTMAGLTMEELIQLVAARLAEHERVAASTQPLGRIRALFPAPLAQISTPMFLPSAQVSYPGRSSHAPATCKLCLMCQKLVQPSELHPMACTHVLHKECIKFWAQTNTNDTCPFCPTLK", "assay": "Competitive isoTOP-ABPP in situ", "format": "cell-based", "settings": "fragment 2 at 200 μM, MDA-MB-231 cells"}, "MLTK (ZAK) C22": {"target": "T1, MLTK (ZAK) C22 (Homo sapiens, UniProt Q9NYL2)", "T1 construct": "expressed in transfected cells", "assay": "Blockade of ibrutinib-derived probe 59 labeling of MLTK (gel-based ABPP)", "format": "binding", "experimental": "CuAAC was performed with 20 μM rhodamine-azide (50× stock in DMSO), 1 mM tris(2-carboxyethyl)phosphine hydrochloride (TCEP; fresh 50× stock in water, final concentration=1 mM), ligand (17× stock in DMSO:t-butanol 1:4, final concentration=100 μM) and 1 mM CuSO4 (50× stock in water, final concentration=1 mM). […] Quenched reactions were analyzed by SDS-PAGE and visualized by in-gel fluorescence. […] For MLTK, HEK 293T cells stably overexpressing MTLK^2 were treated with the indicated fragment electrophiles for 1 h, followed by labeling with 59 (1 μl, of 125 μM, final concentration=5 μM) for 1 h. These were followed by CuAAC conjugation to rhodamine-azide and evaluation by SDS-PAGE as described above."}, "NIT1 C165 (Q86X76)": {"target": "NIT1 C165 (Q86X76) (Homo sapiens, UniProt Q86X76)", "sequence (Q86X76 14-327)": "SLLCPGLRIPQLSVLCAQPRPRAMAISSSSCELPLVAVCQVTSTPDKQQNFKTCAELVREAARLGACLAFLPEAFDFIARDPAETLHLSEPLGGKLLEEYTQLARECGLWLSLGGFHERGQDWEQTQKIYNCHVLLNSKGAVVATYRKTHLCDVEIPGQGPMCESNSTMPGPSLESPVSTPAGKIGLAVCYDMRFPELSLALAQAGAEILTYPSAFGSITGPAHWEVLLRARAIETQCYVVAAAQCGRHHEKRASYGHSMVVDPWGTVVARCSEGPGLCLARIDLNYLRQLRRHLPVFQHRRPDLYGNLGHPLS", "assay": "Competitive isoTOP-ABPP in situ", "format": "cell-based", "settings": "fragment 4 at 100 μM, MDA-MB-231 cells"}, "IMPACT C195 (Q9P2X3)": {"target": "IMPACT C195 (Q9P2X3) (Homo sapiens, UniProt Q9P2X3)", "sequence (Q9P2X3 whole entry, the tested form may be a part)": "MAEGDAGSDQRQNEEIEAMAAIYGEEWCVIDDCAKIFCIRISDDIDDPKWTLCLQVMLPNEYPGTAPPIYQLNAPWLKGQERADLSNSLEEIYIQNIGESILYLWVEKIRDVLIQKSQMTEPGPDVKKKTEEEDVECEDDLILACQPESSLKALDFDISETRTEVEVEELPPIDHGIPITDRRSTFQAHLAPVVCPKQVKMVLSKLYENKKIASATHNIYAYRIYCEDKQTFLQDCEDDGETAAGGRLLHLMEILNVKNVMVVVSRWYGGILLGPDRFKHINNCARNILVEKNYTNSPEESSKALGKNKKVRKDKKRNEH", "assay": "Competitive isoTOP-ABPP in situ", "format": "cell-based", "settings": "fragment 4 at 100 μM, MDA-MB-231 cells"}, "RAI14 C973 (Q9P0K7)": {"target": "RAI14 C973 (Q9P0K7) (Homo sapiens, UniProt Q9P0K7)", "sequence (Q9P0K7 whole entry, the tested form may be a part)": "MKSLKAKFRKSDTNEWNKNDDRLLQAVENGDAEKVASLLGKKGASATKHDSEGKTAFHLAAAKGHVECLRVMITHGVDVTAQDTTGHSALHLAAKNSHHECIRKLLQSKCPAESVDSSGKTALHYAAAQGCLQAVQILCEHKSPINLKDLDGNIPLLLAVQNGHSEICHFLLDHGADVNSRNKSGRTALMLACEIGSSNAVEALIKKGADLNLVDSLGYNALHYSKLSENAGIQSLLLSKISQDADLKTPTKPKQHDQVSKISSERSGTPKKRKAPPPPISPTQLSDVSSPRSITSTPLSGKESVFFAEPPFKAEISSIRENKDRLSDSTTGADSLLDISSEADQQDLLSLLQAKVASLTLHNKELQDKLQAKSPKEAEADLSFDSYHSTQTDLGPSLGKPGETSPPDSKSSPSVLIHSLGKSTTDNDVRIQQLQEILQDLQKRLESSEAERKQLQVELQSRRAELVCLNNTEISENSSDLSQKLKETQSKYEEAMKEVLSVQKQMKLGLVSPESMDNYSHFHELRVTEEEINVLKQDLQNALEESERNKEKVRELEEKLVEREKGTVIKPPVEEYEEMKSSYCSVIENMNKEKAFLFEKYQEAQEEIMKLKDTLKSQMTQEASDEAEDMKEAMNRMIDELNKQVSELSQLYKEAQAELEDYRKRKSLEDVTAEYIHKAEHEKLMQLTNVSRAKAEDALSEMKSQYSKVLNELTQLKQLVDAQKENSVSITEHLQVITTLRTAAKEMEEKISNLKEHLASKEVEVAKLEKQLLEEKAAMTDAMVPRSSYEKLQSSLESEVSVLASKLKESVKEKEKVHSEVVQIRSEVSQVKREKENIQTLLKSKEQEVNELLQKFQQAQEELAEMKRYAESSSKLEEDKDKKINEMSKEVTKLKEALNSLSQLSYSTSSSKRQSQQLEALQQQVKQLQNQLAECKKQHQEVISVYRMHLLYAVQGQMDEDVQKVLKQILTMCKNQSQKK", "assay": "Competitive isoTOP-ABPP in situ", "format": "cell-based", "settings": "fragment 4 at 100 μM, MDA-MB-231 cells"}, "PRMT1": {"target": "T2, PRMT1 (Homo sapiens, UniProt Q99873)", "T2 construct": "Full length PRMT1 subcloned into pET45b (+) (Novagen) was previously generated by the Cravatt lab; inferred from Ni-NTA purification and the pET45b vector; made in house; host or cells: E. coli BL21(DE3)", "T2 sequence (Q99873 11-371 limits assumed)": "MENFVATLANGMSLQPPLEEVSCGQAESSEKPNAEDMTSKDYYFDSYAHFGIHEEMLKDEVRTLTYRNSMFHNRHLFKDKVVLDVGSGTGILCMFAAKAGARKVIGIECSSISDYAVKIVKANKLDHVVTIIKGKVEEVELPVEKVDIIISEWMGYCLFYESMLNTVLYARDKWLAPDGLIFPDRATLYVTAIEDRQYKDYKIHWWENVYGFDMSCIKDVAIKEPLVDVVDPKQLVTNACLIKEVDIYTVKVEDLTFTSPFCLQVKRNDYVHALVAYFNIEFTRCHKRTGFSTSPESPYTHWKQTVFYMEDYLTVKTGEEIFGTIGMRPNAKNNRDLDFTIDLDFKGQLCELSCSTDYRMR", "assay": "PRMT1 in vitro methylation assay (histone 4, 3H-SAM)", "format": "biochemical", "settings": "pre-treatment with fragment 1 h", "experimental": "PRMT1 assays were conducted as described in Weerapana et al. Nature 468:790-795 (2010). Recombinant human PRMT1 (0.85 μM, wild type or C101S mutant) in 25 μL methylation buffer (20 mM Tris, pH 8.0, 200 mM NaCl, 0.4 mM EDTA) was pre-incubated with indicated fragments for 1 h and methylation activity was monitored after addition of […] of recombinant histone 4 (NEB, M2504S) and ^3H-SAM (2 μCi). Reactions were further incubated for 60 min at ambient temperature and stopped with 4×SDS sample buffer. SDS-PAGE gels were fixed with 10% acetic acid/10% methanol (v/v), washed, and incubated with Amplify reagent (Amersham) before exposing to film at −80° C. for 3 days."}, "[4]": {"settings": "anti-CD3, anti-CD28 stimulation, 8 h"}}, "note": "Counter-ions that a name gives are not always drawn."}
{"smiles": "COC(=O)/C=C/C(=O)OC", "note": "[DMF, dimethyl fumarate]", "values": [{"measurement": "blockade of T cell activation", "setting": "primary human T cells [1]; 10 μM", "value": "marginal/negligible"}, {"measurement": "blockade of T cell activation", "setting": "primary human T cells [1]; 25 μM", "value": "partial"}, {"measurement": "blockade of T cell activation", "setting": "primary human T cells [1]; 50 μM", "value": "near-complete inhibition"}, {"measurement": "expression of CD25", "setting": "primary human T cells [1]; [4]", "value": "blocked"}, {"measurement": "expression of CD69", "setting": "primary human T cells [1]; [4]", "value": "blocked"}, {"measurement": "inhibitory effect on T cell activation", "setting": "primary human T cells [1]; drug added six hours after stimulation", "value": "completely ablated"}, {"measurement": "inhibitory effect on T cell activation", "setting": "primary human T cells [1]; drug added two hours after stimulation", "value": "reduced"}, {"measurement": "secretion of IL-2", "setting": "primary human T cells [2]", "value": "strongly inhibited"}, {"measurement": "T cell viability", "setting": "primary human T cells [3]", "value": "did not impair"}]}
{"smiles": "COc1ccc2c(c1)CCCN2C(=O)CCl", "note": "[compound 2]", "values": [{"measurement": "isoTOP-ABPP reactivity profile (ratio) 2_200 μM_in-situ_231", "setting": "SMAD2 C81 (Q15796)", "value": 20.0}, {"measurement": "isoTOP-ABPP reactivity profile (ratio) 2_200 μM_in-situ_231", "setting": "RNF214 C655 (Q8ND24)", "value": 6.5}]}
{"smiles": "O=C(CCl)Nc1cc(C(F)(F)F)cc(C(F)(F)F)c1", "note": "[compound 3]", "values": [{"measurement": "blockade of probe 59 labeling of MLTK (in words)", "setting": "MLTK (ZAK) C22", "value": "inactive"}]}
{"smiles": "COc1ccc(C2CC(c3cccs3)=NN2C(=O)CCl)cc1", "note": "(stereo not shown) [compound 4]", "values": [{"measurement": "isoTOP-ABPP reactivity profile (ratio) 4_100 μM_in-situ_231", "setting": "NIT1 C165 (Q86X76)", "value": 0.9}, {"measurement": "isoTOP-ABPP reactivity profile (ratio) 4_100 μM_in-situ_231", "setting": "IMPACT C195 (Q9P2X3)", "value": 20.0}, {"measurement": "isoTOP-ABPP reactivity profile (ratio) 4_100 μM_in-situ_231", "setting": "RAI14 C973 (Q9P0K7)", "value": 8.7}]}
{"smiles": "Cn1cc(S(=O)(=O)N2CCOCC2)cc1C(=O)NC(=O)CCl", "note": "[compound 11]", "values": [{"measurement": "PRMT1-catalyzed methylation of histone 4", "setting": "PRMT1", "value": "inhibited"}]}
